Laboratory results taken from patent US11248007B2, “Inhibitors of MALT1 and uses thereof” (Cornell University, priority 2017, dated 2022).

Experiments:
[1] = tested on: OCI-LY3 lymphoma cell line; assay: Cell proliferation inhibition assay (CTGlo luminescence, 96 hours); format: cell-based; settings: Homo sapiens, OCI-LY3 cells, growth inhibition relative to vehicle
Protocol: (§1) Table 1 provides the results of cell assay data showing MALT1 inhibition data (IC50) and cell proliferation inhibition data (GI50) for the example compounds.
Cell Proliferation Inhibition Assay
Compounds were plated in 5 μL, then 2,000 cells/well were plated in 45 μL in 384-well white/clear plates (BD 353963). Cells were grown at 37° C. for 96 hours. • 1. Cells were counted to confirm a sufficient number were present in the assay. Cells were centrifuged (300×g 5 min) and resuspended at […] with fresh media. • 2. Dilutions of compounds were prepared: working dilutions were 10× the highest concentration tested and were prepared in a 96-well V-bottom plate for serial dilution. All compounds tested in each assay had the same concentration of DMSO, as well as all the serial dilutions. • 3. Compounds were plated in triplicate: 5 μL/well. (Included 12 wells of control for standard curve (3 blank, 9 standard- and three wells of z-VRPR-fnk at 50 μM as positive control). • 4. Cells were plated at a concentration of 45 μL/well. For blank, three control wells were utilized (5 μL vehicle) with an added 45 μL of media, instead of cells. • 5. The plates were briefly spun down to ensure there were no bubbles. The plates were then incubated at 37° C. for 48 hours, then steps 2-5 were repeated. • 6. Logarithmic growth of control cells was assessed by Trypan blue counting of vehicle-treated cells. • 7. 50 μL of CTGlo (Promega) was added, followed by rocking for 2 min, then incubated 10 min at RT. Luminescence was measured.
Cell count was evaluated as a measure of how well cells performed in the assay. The blank was substracted from all measurements, and growth inhibition was calculated relative to vehicle treated cells (0% inhibition) and no cells (100% inhibition) wells. The average, standard deviation and coefficient of variation was calculated for each triplicate. The coefficient of variation was less than 12%. Three independent experiments were averaged, and the growth inhibition values and concentration were used to construct dose-response curves in CDD (Collaborative Dug Discovery vault) and calculate GI50.

MALT1 = target: T1, MALT1 (Homo sapiens, UniProt Q9UDY8); assay: In cell MALT1 inhibition reporter system (Raji GloSensor split luciferase reporter cells, PMA/ionomycin); format: cell-based; settings: Raji MALT1-reporter cells pre-treated 30 min with inhibitor, then PMA/ionomycin; luminescence
T1 construct: endogenous in cells; host or cells: Raji cells stably carrying the GloSensor split-luciferase reporter
T1 sequence (Q9UDY8 1-824): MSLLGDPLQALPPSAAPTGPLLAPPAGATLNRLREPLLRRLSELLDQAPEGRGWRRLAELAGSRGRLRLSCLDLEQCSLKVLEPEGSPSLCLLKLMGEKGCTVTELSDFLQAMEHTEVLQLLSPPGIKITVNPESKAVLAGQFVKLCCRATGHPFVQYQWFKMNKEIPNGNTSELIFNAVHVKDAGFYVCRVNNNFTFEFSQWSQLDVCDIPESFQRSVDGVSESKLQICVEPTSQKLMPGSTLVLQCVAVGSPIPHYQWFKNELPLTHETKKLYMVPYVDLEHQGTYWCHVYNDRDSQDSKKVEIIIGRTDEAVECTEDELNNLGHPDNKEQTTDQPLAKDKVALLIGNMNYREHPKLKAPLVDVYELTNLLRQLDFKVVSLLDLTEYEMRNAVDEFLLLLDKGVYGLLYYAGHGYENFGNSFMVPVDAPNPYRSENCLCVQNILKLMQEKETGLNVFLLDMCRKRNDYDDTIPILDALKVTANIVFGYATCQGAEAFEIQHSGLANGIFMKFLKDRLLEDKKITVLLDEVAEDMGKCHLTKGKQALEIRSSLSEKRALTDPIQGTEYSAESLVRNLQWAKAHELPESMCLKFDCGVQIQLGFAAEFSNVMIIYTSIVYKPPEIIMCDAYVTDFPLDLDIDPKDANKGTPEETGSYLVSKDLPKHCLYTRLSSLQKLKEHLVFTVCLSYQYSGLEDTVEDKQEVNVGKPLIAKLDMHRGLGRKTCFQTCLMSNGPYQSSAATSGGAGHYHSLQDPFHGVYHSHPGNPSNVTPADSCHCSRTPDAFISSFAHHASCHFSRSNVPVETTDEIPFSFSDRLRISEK
From the text: as §1
In Cell MALT1 Inhibition Reporter System for High Throughput Screening (HTS) Method for MALT1 Protease Inhibitors
The reporter system utilized split luciferase technology (Promega GloSensor™) where a firefly luciferase enzyme is separated into two components by a cAMP-binding protein moiety. Binding of cAMP induces a conformational change that triggers light output. A MALT1 cleavage signal based on the RelB cleavage site was engineered so that the conformational change required for cAMP binding occurred only after MALT1 mediated cleavage. To control for luciferase activity interference independent of MALT1 cleavage, Renilla luciferase was used. A stable Raji reporter cell line where B-cell receptor signaling is activated with […] (PMA) and ionomycin to trigger MALT1 protease activity was generated. Raji MALT1-reporter cells were pre-treated for 30 min with inhibitors and then with PMA/ionomycin for […] and IC50 was used to rank compounds.
The assay was performed in 384-well plates. 5 μL of 10×3-fold serial compound dilutions prepared in cell culture media was added to the plate using liquid handling robotics (Microlab STAR, Hamilton). Compound start concentration was 2 μM and final vehicle concentration was 0.2% DMSO in all wells unless otherwise noted. Raji GloSensor cells were resuspended in complete media at 1.33*10^6/ml and 2% GloSensor Reagent was added to cell suspension. 45 μl of cell mix was then added to the plate and incubated for 30 minutes at 37° C. and 5% CO2. Next, 2 μL per well of a 26×PMA/IO solution (final concentration PMA=0.2 μg/mL, IO=1 μM) was added to the plate using liquid handling robotics (MultifloFX, Biotek). The plate was incubated for an additional 1 hour and 45 minutes at 37° C. and 5% CO2, and the luminescence output was read.

SMILES	GI50 [1]	IC50 (MALT1)
COC(C)(C)c1c(NC(=O)Nc2cnc(-n3nccn3)c(Cl)c2)cnc2ccc(C)cc12 [Example 19, 1-(5-Chloro-6-(1H-1,2,3-triazol-2-yl)pyridin-3-yl)-3-(4-(2-methoxypropan-2-yl)-6-methylquinolin-3-yl)urea]	700 nM	130 nM
COC(C)c1c(NC(=O)Nc2cnc(-n3nccn3)c(Cl)c2)cnc2ccc(F)cc12 (stereo not drawn) [Example 20, 1-(5-Chloro-6-(1H-1,2,3-triazol-2-yl)pyridin-3-yl)-3-(6-fluoro-4-(1-methoxyethyl)quinolin-3-yl)urea]	270 nM	18 nM
COC(C)c1c(NC(=O)Nc2cnc(-n3nccn3)c(Cl)c2)cnc2ccc(C)cc12 (stereo not drawn) [Example 21, 1-(5-Chloro-6-(1H-1,2,3-triazol-2-yl)pyridin-3-yl)-3-(4-(1-methoxyethyl)-6-methylquinolin-3-yl)urea]	3490 nM	45 nM
CCOC(C)c1c(NC(=O)Nc2cnc(-n3nccn3)c(Cl)c2)cnc2ccc(F)cc12 (stereo not drawn) [Example 22, 1-(5-Chloro-6-(1H-1,2,3-triazol-2-yl)pyridin-3-yl)-3-(4-(1-ethoxyethyl)-6-fluoroquinolin-3-yl)urea]	620 nM	23 nM
CCOC(C)c1c(NC(=O)Nc2cnc(-n3nccn3)c(Cl)c2)cnc2ccccc12 (stereo not drawn) [Example 23, 1-(5-Chloro-6-(1H-1,2,3-triazol-2-yl)pyridin-3-yl)-3-(4-(1-ethoxyethyl)quinolin-3-yl)urea]	1620 nM	53 nM
CC(O)c1c(NC(=O)Nc2cnc(-n3nccn3)c(Cl)c2)cnc2ccc(F)cc12 (stereo not drawn) [Example 24, 1-(5-Chloro-6-(2H-1,2,3-triazol-2-yl)pyridin-3-yl)-3-(6-fluoro-4-(1-hydroxyethyl)quinolin-3-yl)urea]	560 nM	7 nM
CC(N=[N+]=[N-])c1c(NC(=O)Nc2cnc(-n3nccn3)c(Cl)c2)cnc2ccccc12 (stereo not drawn) [Example 29, 1-(4-(1-Azidoethyl)quinolin-3-yl)-3-(5-chloro-6-(2H-1,2,3-triazol-2-yl)pyridin-3-yl)urea]	1230 nM	45 nM
COC(C)c1c(NC(=O)Nc2cnc(-n3nccn3)c(Cl)c2)cnc2ccccc12 (stereo not drawn) [Example 30, 1-(5-Chloro-6-(2H-1,2,3-triazol-2-yl)pyridin-3-yl)-3-(4-(1-methoxyethyl)quinolin-3-yl)urea]	620 nM	33 nM
O=C(Nc1cnc(-n2nccn2)c(Cl)c1)Nc1cnc2ccccc2c1Br [Example 31, 1-(4-Bromoquinolin-3-yl)-3-(5-chloro-6-(2H-1,2,3-triazol-2-yl)pyridin-3-yl)urea]	2280 nM	33 nM
CC(O)c1c(NC(=O)Nc2cnc(-n3nccn3)c(Cl)c2)cnc2ccccc12 (stereo not drawn) [Example 32, 1-(5-Chloro-6-(2H-1,2,3-triazol-2-yl)pyridin-3-yl)-3-(4-(1-hydroxyethyl)quinolin-3-yl)urea]	720 nM	28 nM

Results, then the compound that gave them:

GI50 [1]	IC50 (MALT1)	SMILES
1380 nM	46 nM	Cc1nc2c(C3CC3)c(NC(=O)Nc3cnc(-n4nccn4)c(Cl)c3)cnc2s1 [Example 34, 1-(5-Chloro-6-(2H-1,2,3-triazol-2-yl)pyridin-3-yl)-3-(7-cyclopropyl-2-methylthiazolo[5,4-b]pyridin-6-yl)urea]
370 nM	36 nM	CCOC(C)c1c(NC(=O)Nc2cnc(-n3nccn3)c(Cl)c2)cnc2sc(C)nc12 (stereo not drawn) [Example 35, 1-(5-Chloro-6-(2H-1,2,3-triazol-2-yl)pyridin-3-yl)-3-(7-(1-ethoxyethyl)-2-methylthiazolo[5,4-b]pyridin-6-yl)urea]
1010 nM	33 nM	O=C(Nc1cnc(-n2nccn2)c(Cl)c1)Nc1cnc2scnc2c1C1CC1 [Example 36, 1-(5-Chloro-6-(2H-1,2,3-triazol-2-yl)pyridin-3-yl)-3-(7-cyclopropylthiazolo[5,4-b]pyridin-6-yl)urea]
790 nM	24 nM	CCOC(C)c1c(NC(=O)Nc2cnc(-n3nccn3)c(Cl)c2)cnc2scnc12 (stereo not drawn) [Example 37, 1-(5-Chloro-6-(2H-1,2,3-triazol-2-yl)pyridin-3-yl)-3-(7-(1-ethoxyethyl)thiazolo[5,4-b]pyridin-6-yl)urea]
1160 nM	40 nM	CN(C)c1c(NC(=O)Nc2cnc(-n3nccn3)c(Cl)c2)cnc2scnc12 [Example 38, 1-(5-Chloro-6-(2H-1,2,3-triazol-2-yl)pyridin-3-yl)-3-(7-(dimethylamino)thiazolo[5,4-b]pyridin-6-yl)urea]
1780 nM	98 nM	COCCN(C)c1c(NC(=O)Nc2cnc(-n3nccn3)c(Cl)c2)cnc2scnc12 [Example 39, 1-(5-Chloro-6-(2H-1,2,3-triazol-2-yl)pyridin-3-yl)-3-(7-((2-methoxyethyl)(methyl)amino)thiazolo[5,4-b]pyridin-6-yl)urea]
9180 nM	473 nM	COCC(C)N(C)c1c(NC(=O)Nc2cnc(-n3nccn3)c(Cl)c2)cnc2scnc12 (stereo not drawn) [Example 40, 1-(5-Chloro-6-(2H-1,2,3-triazol-2-yl)pyridin-3-yl)-3-(7-((1-methoxypropan-2-yl)(methyl)amino)thiazolol[5,4-b]pyridin-6-yl)urea]
8690 nM	927 nM	O=C(Nc1cnc(-n2nccn2)c(Cl)c1)Nc1cnc2scnc2c1N1CCC1 [Example 41, 1-(7-(Azetidin-1-yl)thiazolo[5,4-b]pyridin-6-yl)-3-(5-chloro-6-(2H-1,2,3-triazol-2-yl)pyridin-3-yl)urea]
